In patent US8273748B2, “Amino alcohol derivative and immunosuppresive agent having same as an active ingredient” (Kyorin Pharmaceutical Co., Ltd., priority 2006, dated 2012):

Experiments:
Format in all cases: in vivo
[1] = system: mouse host-versus-graft rejection reaction; test: Inhibition activity on mouse host-versus-graft rejection reaction (popliteal lymph node weight); settings: ip, inhibition of popliteal lymph node weight increase, C3H/HeN mice, intraperitoneal once per day, 4 times
Method: Experiment example 2 was carried out by referring to the methods described in Transplantation, Vol. 55, No. 3, pp. 578 to 591, 1993. The spleens from BALB/c male mice which were6 to 23 weeks old (Japan SLC) were collected. The spleens were extracted in RPMI-1640 medium (Sigma), and then turned into a spleen cell suspension by grinding them with 2 glass slides and then passing the ground matter through a strainer (70 microns, Falcon). The spleen cell suspensions were centrifuged, and the supernatants were removed. Then, an ammonium chloride-tris isotonic buffer solution was added, and the red blood cells were hemolyzed. After centrifuging and washing 3 times with RPMI-1640 medium, the cells were suspended in RPMI-1640 medium. Mitomycin C (Kyowa Hakko) was added thereto so that the final concentration was 25 μg/mL, and the cells were incubated for 30 minutes at 37° C. under 5% CO2. After centrifuging and washing 3 times with RPMI-1640 medium, the cells were suspended in RPMI-1640 medium so that the concentration was 2.5×10^8 cells/mL. These cells were used as a stimulator cell suspension. 20 μL (5×10^6 cells/mouse) of the stimulator cell suspension was injected subcutaneously into the right hind-foodpad of C3H/HeN male mice which were6 to 11 weeks old (Clea Japan) using a 27G needle and a microsyringe (Hamilton). For the normal control group, RPMI-1640 medium only was injected. After 4 days, the right popliteal lymph nodes were extracted, and their weight was measured using Mettler AT201 electronic scales (Mettler Toledo). From the day of the stimulator cell suspensions being injected to 3 days thereafter, the test compounds were intraperitoneally administered on consecutive days once per day, for a total of 4 times. For the control group, only a solvent having the same composition as that used in the preparation of the test compounds was administered in the same manner. As the solvent, basically a physiological saline containing 0.5% DMSO was used (suitably adjusted according to the solubility of the compound). The inhibition ratio was calculated using the following equation. [formula]

[2] = system: white blood cells in mouse peripheral blood; test: Activity on total number of white blood cells in mouse peripheral blood; settings: BALB/c mice, blood collected 6 hours after administration
Method: The test compounds were dissolved or suspended in DMSO, and then a physiological saline solution was added to make dosing solutions (DMSO final concentration 1%). If the dosing solutions were not in a dissolved or a uniform suspended state, Tween 80 was added so that the final concentration thereof was 0.01 to 0.1%. The resultant solutions were then sonicated to form a fine suspension. These test compound solutions were intraperitoneally administered in respective amounts of 0.1 mL or 0.2 mL per 10 g of body weight to BALB/cCrSlc male mice (8 to 14 weeks old, Japan SLC). For the control group, only a solvent having the same composition as that used in the preparation of the test compounds was administered in the same manner. Six hours after administration of the test compound solutions, blood was collected from the postcava under ether anesthesia (10 μL of 10% EDTA was added as an anticoagulant). Measurement of the total number of white blood cells was carried out using the automated blood cell counting apparatus Sysmex F-820 (Sysmex). Here, compounds having an inhibition ratio of 60% or more were marked as “+++”, compounds having an inhibition ratio of less than 60% but more than or equal to 50% were marked as “++”, and compounds having an inhibition ratio of less than 50% but more than or equal to 40% were marked as “+”. Furthermore, the inhibition ratios are the results from a dose of 0.3 mg/kg (“[ ]” are the results from 3 mg/kg).

[3] = Effect on rat lung weight; settings: Wistar rats, lungs extracted 6 hours later
Method: Crlj:Wistar rats (male) 5 to 8 weeks old were used in the experiment. An aqueous solution of the test compounds was respectively orally administered in an amount of 0.5 mL per 100 g of rat body weight. The lungs were extracted 6 hours later, and the lung weight was measured.

[4] = system: allogenic skin graft for rats; test: Rat skin graft model (allogenic skin graft survival); settings: for MST: oral administration once a day
Method: Using a rat skin graft model, activity on the rejection reaction was investigated.
Skin from the abdomen of a LEW/CrlCrlj rat serving as the donor (male, 5 weeks old, Japan Charles River) was peeled away, and the panniculus carnosus muscule layer under the skin was removed. Then, a 1.8 cm×1.8 cm skin specimen (graft) was prepared. Next, a F344/DuCrlCrlj rat serving as the recipient (male, 5 weeks old, Japan Charles River) was anesthetized by intraperitoneal administration of 40 mg/kg of sodium pentobarbital (nembutal injection, Dainippon Sumitomo Pharma). The hair of the back of the rat was shorn off by electric clippers, and then the remaining hair was further shaved off using a razor. Then, a 1.8 cm×1.8 cm mark was made on the back of the rat, and a shallow cut was made along the mark with a scalpel. Next, the skin was peeled away along this cut by tweezers to produce a graft bed. Several drops of sterile physiological saline solution (Otsuka normal saline, Otsuka Pharmaceutical) were dropped onto the graft bed, and then wiped away with gauze. Several drops of penicillin (crystalline penicillin GpotassiumMeiji, Meiji Seika) were then dropped thereon. Next, the graft was placed on the graft bed. After absorbing excess moisture with sterile gauze, a first-aid bandaid was stuck over the graft. Furthermore, an adhesive bandage was wrapped around the trunk of the rat. On the third day after the operation, a new adhesive bandage was wrapped thereover. On the fifth day after the operation, the bandaid and the bandages were cut open with scissors and removed. Observation of the graft was carried out on consecutive days from when the bandaid was removed (from the fifth day). A determination of graft rejection was made when 90% or more of the graft had died and tuned brown. The number of days from grafting until rejection was confirmed was taken as the survival period. The mean value of the survival period for each group was calculated as the mean survival time (MST). Investigation was carried out with 5 animals per group. All of the rats were housed in individual cages. The test compounds were dissolved in ultra-pure water, and were orally administered once a day, on consecutive days, from the graft day. For the control group, ultra-pure water was administered in the same manner.

[5] = dose 3 mg/kg (values in [ ]) intraperitoneal

Row | Compound | ED50 [1] | Inhibition Ratio ([2]; dose 0.3 mg/kg intraperitoneal) | further results
1 | CCc1cccc(Sc2ccc(CCC[C@@](C)(N)CO)c(Cl)c2)c1.Cl [Example 32, (R)-2-amino-5-[2-chloro-4-(3-ethylphenylthio)phenyl]-2-methylpentan-1-ol hydrochloride] | 0.1 to 1 mg/kg | – | –
2 | C[C@](N)(CO)CCc1ccc(Sc2cccc(C(F)(F)F)c2)cc1Cl.Cl [Example 29, (R)-2-amino-4-[2-chloro-4-(3-trifluoromethylphenylthio)phenyl]-2-methylbutan-1-ol hydrochloride] | 0.1 to 1 mg/kg | +++ (inhibition ratio of 60% or more) | –
3 | C[C@](N)(CO)CCc1ccc(Oc2cccc(C(F)(F)F)c2)cc1Cl.Cl [Example 28, (R)-2-amino-4-[2-chloro-4-(3-trifluoromethylphenoxy)phenyl]-2-methylbutan-1-ol hydrochloride] | 1 to 10 mg/kg | ++ (inhibition ratio of less than 60% but more than or equal to 50%) | –
4 | C[C@](N)(CO)CCCc1ccc(Sc2cccc(C(F)(F)F)c2)cc1F.Cl [Example 35, (R)-2-amino-5-[2-fluoro-4-(3-trifluoromethylphenylthio)phenyl]-2-methylpentan-1-ol hydrochloride] | 0.1 to 1 mg/kg | – | –
5 | C[C@](N)(CO)CCCc1ccc(Sc2cccc(C(F)(F)F)c2)cc1Cl.Cl [Example 27, (R)-2-amino-5-[2-chloro-4-(3-trifluoromethylphenylthio)phenyl]-2-methylpentan-1-ol hydrochloride] | < 0.1 mg/kg | + (inhibition ratio of less than 50% but more than or equal to 40%) | Effect on lung weight ([3]; up to a dose of 100 mg/kg oral): no effects whatsoever on lung weight; MST ([4]; 3 mg/kg): 11.8 days; MST ([4]; 10 mg/kg): 14 days; MST ([4]; 30 mg/kg): 20.4< days; Survival period extension effect of the graft ([4]; individual administration, oral): survival period extension effect of the graft was found
6 | C[C@](N)(CO)CCCc1ccc(Oc2cccc(C(F)(F)F)c2)cc1Cl.Cl [Example 26, (R)-2-amino-5-[2-chloro-4-(3-trifluoromethylphenoxy)phenyl]-2-methylpentan-1-ol hydrochloride] | 0.1 to 1 mg/kg | – | Effect on lung weight ([3]; up to a dose of 30 mg/kg oral): no effects whatsoever on lung weight; Inhibition Ratio [2, 5]: [+] (inhibition ratio of less than 50% but more than or equal to 40%)
7 | CCC[C@](N)(CO)CCCc1ccc(Sc2cccc(C(F)(F)F)c2)cc1Cl.Cl [Example 36, (R)-2-amino-5-[2-chloro-4-(3-trifluoromethylphenylthio)phenyl]-2-propylpentan-1-ol hydrochloride] | 0.1 to 1 mg/kg | – | Inhibition Ratio [2, 5]: [++] (inhibition ratio of less than 60% but more than or equal to 50%)
